Results reported in US5284853A, “Angiotensin II receptor blocking 2,3,6 substituted quinazolinones” (American Cyanamid Company, priority 1993, dated 1994).
“And” between values parts separate entries of the source, which are not always exact repeats. Identical values can stand only once.

Legend:
Angiotensin II Receptor = biological target: T1, Angiotensin II Receptor (Bos taurus, UniProt P25104); assay: Receptor binding assay: competition of [^125 I](Sar^1,Ile^8)AngII binding to beef adrenal cortex microsomal membranes; conditions: 60 min, room temperature, pH 7.4
T1 construct: The brownish tissue forming the adrenal cortex is scraped off and finely minced with scissors before homogenization; tissue local slaughter house (Maxwell-Cohen); host or cells: beef adrenal cortex, microsomal membranes (100,000×g pellet)
T1 sequence (P25104 1-359): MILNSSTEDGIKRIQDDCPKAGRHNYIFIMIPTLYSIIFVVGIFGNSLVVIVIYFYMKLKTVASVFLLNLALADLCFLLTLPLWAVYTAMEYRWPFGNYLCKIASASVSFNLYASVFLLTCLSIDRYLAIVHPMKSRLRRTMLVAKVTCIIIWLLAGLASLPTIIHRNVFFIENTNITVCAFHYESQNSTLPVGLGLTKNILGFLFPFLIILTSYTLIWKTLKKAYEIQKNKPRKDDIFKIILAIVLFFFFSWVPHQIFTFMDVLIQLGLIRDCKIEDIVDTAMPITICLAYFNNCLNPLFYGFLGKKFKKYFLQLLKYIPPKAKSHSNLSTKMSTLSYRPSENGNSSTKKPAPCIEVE
Excerpt: Beef adrenals are obtained from a local slaughter house (Maxwell-Cohen). [^125 […]. 2200 Ci/mmole, is purchased from Dupont (KEN@, Boston, Mass.). All unlabeled AngII analogs, Dimethylsulfoxide (DMSO), nucleotides, bovine serum albumin (BBA) are purchased from Sigma Chemical Co., St. Louis, MO U.S.A. Approximately sixteen (16) to twenty (20) beef adrenal glands are processed as follows: fresh adrenal glands received on crushed ice are cleaned of fatty tissues and the tough membranes encapsulating the glands are removed and discarded. The brownish tissue forming the adrenal cortex is scraped off and finely minced with scissors before homogenization care is taken to avoid contamination with medullary tissue during dissection. […] Unless otherwise indicated, all subsequent operations are done at […]. […] The homogenate is centrifuged first at low speed (3,000×g) for 10 min. […] This P2 pellet is discarded and the liquid phase is carefully decanted off in clean centrifuge tubes and recentrifuged at high speed (100,000×g) for 60 min. The translucent final pellet is harvested and combined in a small volume (20-50.0 ml) of […] Tris.HCl buffer, pH 7.2. A 100 ul aliquot is withdrawn and the protein content of the preparation is determined by the Lowry's method (Lowry, O. H., Rosebrough, N. P., Parr, A. L. and Randall, R. J., Protein measurement with Folin phenol reagent. J. Biol. Chem., […], 265-275, 1951). The pelleted membrane is reconstituted in 50.0 mM Tris.HCl buffer containing 0.1 mM of phenylmethylsulfonyl fluoride (PMSF) to give approximately a protein concentration of 2.5 mg per ml of tissue suspension. […] In competition studies, experimental compounds are diluted in dimethylsulfoxide (DMSO) and added in 20 ul to wells before the introduction of tissue membranes. This concentration of DMSO is found to have no negative effects on the binding of [^125 I] ([…] to the membranes. Assays are performed in triplicate. The wells are left undisturbed for 60 min. at room temperature. Following incubation, all wells are harvested at once with a Brandel® Harvester especially designed for a 96 well plate (Brandel® Biomedical Research & Development Labs. Inc., Gaithersburg, MD, U.S.A.). The filter discs are washed with 10×1.0 ml of cold 0.9% NaCl to remove unbound ligand. Presoaking the filter sheet in 0.1% polyethyleneimine in normal saline (PEI/Saline) greatly reduces the radioactivity retained by the filter blanks. This method is routinely used. The filters are removed from the filter grid and counted in a Parkard® Cobra Gamma Counter for 1 min. (Packard Instrument Co., Downers Grove, Ill, U.S.A.). The binding data are analyzed by the non-linear interactive "LUNDON-11" program (LUNDON SOFTWARE Inc., Cleveland, OH U.S.A.).

[1] = tested on: Angiotensin II (AII) vasopressor response; assay: AII Challenge: antagonism of the angiotensin II vasopressor response in conscious SHR; assay type: in vivo, Spontaneously hypertensive rats (Male okamoto-Aoki SHR); conditions: 10 mg/kg I.V.; for Average Change / Inhibition: n = 2; for Change / Control Before AII / Response After AII: per rat
Excerpt: […] Conscious Male okamoto-Aoki SHR, 16-20 weeks old, weighing approximately 330 g are purchased from Charles River Labs (Wilmington, MA). Conscious rats are restrained in a supine position with elastic tape. The area at the base of the tail is locally anesthetized by subcutaneous infiltration with 2% procaine. […] The cannula is secured, heparinized (1,000 I.U./ml), sealed and the wound is closed. The animals are placed in plastic restraining cages in an upright position. The cannula is attached to a Statham P23Db pressure transducer, and pulsatile blood pressure is recorded to 10-15 minutes with a Gould Brush recorder. (Chan et al., (Drug Development Res., 18:75-94, 1989). […] Co., St. […] […] […] […] […] A compound is considered active if at 30 mg/kg i.v. it antagonized at least 50% of the response.

[2] = AII 0.05 mcg/kg IV, 30 min post dose
[3] = AII 0.05 mcg/kg IV, 60 min post dose
[4] = AII 0.05 mcg/kg IV, 90 min post dose
[5] = AII 0.05 mcg/kg IV, 120 min post dose
[6] = AII 0.05 mcg/kg IV, 180 min post dose
[7] = AII 0.1 mcg/kg IV, 30 min post dose
[8] = AII 0.1 mcg/kg IV, 60 min post dose
[9] = AII 0.1 mcg/kg IV, 90 min post dose
[10] = AII 0.1 mcg/kg IV, 120 min post dose
[11] = AII 0.1 mcg/kg IV, 180 min post dose

IC50 (Angiotensin II Receptor): 30 nM
SMILES: CCCCc1nc2ccc(C3CC(C(=O)OCC)=NO3)cc2c(=O)n1Cc1ccc(-c2ccccc2-c2nnn[nH]2)cc1 (stereo not drawn) [Example 26, Ethyl 5-[2-butyl-3,4-dihydro-4-oxo-3-[[2'-(lH-tetrazol-5-yl)[1,1'-biphenyl]-4-yl]-methyl]-6-cruinazo-linyl]-4,5-dihydro-3-isoxazolecarboxylate]
Average Change [1, 2]: 15 mmhg
Inhibition [1, 2]: 73%
Change [1, 2]: 15 mmhg
Control Before AII [1, 2]: 180 mmhg and 175 mmhg
Response After AII [1, 2]: 195 mmhg and 190 mmhg
Average Change [1, 3]: 10.5 mmhg
Inhibition [1, 3]: 81%
Change [1, 3]: 20 mmhg and 1 mmhg
Control Before AII [1, 3]: 175 mmhg and 195 mmhg
Response After AII [1, 3]: 195 mmhg and 196 mmhg
Average Change [1, 4]: 17 mmhg
Inhibition [1, 4]: 70%
Change [1, 4]: 15 mmhg and 19 mmhg
Control Before AII [1, 4]: 175 mmhg and 165 mmhg
Response After AII [1, 4]: 190 mmhg and 184 mmhg
Average Change [1, 5]: 20 mmhg
Inhibition [1, 5]: 64%
Change [1, 5]: 20 mmhg
Control Before AII [1, 5]: 165 mmhg
Response After AII [1, 5]: 185 mmhg
Average Change [1, 6]: 17.5 mmhg
Inhibition [1, 6]: 69%
Change [1, 6]: 15 mmhg and 20 mmhg
Control Before AII [1, 6]: 170 mmhg and 165 mmhg
Response After AII [1, 6]: 185 mmhg
Average Change [1, 7]: 11 mmhg
Inhibition [1, 7]: 79%
Change [1, 7]: 7 mmhg and 15 mmhg
Control Before AII [1, 7]: 185 mmhg and 170 mmhg
Response After AII [1, 7]: 192 mmhg and 185 mmhg
Average Change [1, 8]: 12.5 mmhg
Inhibition [1, 8]: 77%
Change [1, 8]: 15 mmhg and 10 mmhg
Control Before AII [1, 8]: 180 mmhg and 175 mmhg
Response After AII [1, 8]: 195 mmhg and 185 mmhg
Average Change [1, 9]: 15 mmhg
Inhibition [1, 9]: 72%
Change [1, 9]: 15 mmhg
Control Before AII [1, 9]: 185 mmhg and 175 mmhg
Response After AII [1, 9]: 200 mmhg and 190 mmhg
Average Change [1, 10]: 18.5 mmhg
Inhibition [1, 10]: 65%
Change [1, 10]: 17 mmhg and 20 mmhg
Control Before AII [1, 10]: 175 mmhg and 165 mmhg
Response After AII [1, 10]: 192 mmhg and 185 mmhg
Average Change [1, 11]: 38.5 mmhg
Inhibition [1, 11]: 28%
Change [1, 11]: 37 mmhg and 40 mmhg
Control Before AII [1, 11]: 170 mmhg and 165 mmhg
Response After AII [1, 11]: 207 mmhg and 205 mmhg
